Nine compounds from PubChem BioAssay AID588440 (The Scripps Research Institute Molecular Screening Center, 2011) can be followed below.

One may read the CC50 as the concentration that lowers cell viability or growth by half.

The source made the active and inactive calls.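 The calls were made as follows: active = half-maximal cytotoxic concentration at or below 10 µM; inactive = the rest.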

The subject of the test is HEK293 LDH release cytotoxicity, resorufin fluorescence. Description: membrane integrity loss in HEK cells – cell-based, fluorescence, cytotoxicity control for IDE activator project, dose response (AID 588440).
As to `C#CCOCCOCCOCCNc1nc(N2CCN(C(=O)CCCCCCCCCCNC(=O)[C@H](CCCCN)n3cc(CCO)nn3)CC2)nc(N2CCN(C(=O)CCCCCCCCCCNC(=O)[C@H](CCCN=C(N)N)n3cc(C[C@@H](C)CC)nn3)CC2)n1`, the CC50 is 5.63 µM.

Consider `C#CCOCCOCCOCCNc1nc(N2CCN(C(=O)CCCCCCCCCCNC(=O)Cn3cc(C[C@@H](C)O)nn3)CC2)nc(N2CCN(C(=O)CCCCCCCCCCNC(=O)[C@H](CCCN=C(N)N)n3cc(C[C@@H](C)CC)nn3)CC2)n1`, for which the CC50 is 7.28 µM.

As to `C#CCOCCOCCOCCNc1nc(N2CCN(C(=O)CCCCCCCCCCNC(=O)[C@H](CO)n3cc(CCCSC)nn3)CC2)nc(N2CCN(C(=O)CCCCCCCCCCNC(=O)[C@H](CCCCN)n3cc(CCO)nn3)CC2)n1`, the CC50 is 20.8 µM (inactive).

On to `C#CCOCCOCCOCCNc1nc(N2CCN(C(=O)CCCCCCCCCCNC(=O)[C@@H](CCSC)n3cc(CCO)nn3)CC2)nc(N2CCN(C(=O)CCCCCCCCCCNC(=O)[C@H](CO)n3cc(CCCCCN)nn3)CC2)n1`, for which the CC50 was 12.6 µM (inactive).

`C#CCOCCOCCOCCNc1nc(N2CCN(C(=O)CCCCCCCCCCNC(=O)Cn3cc(CCCCCN)nn3)CC2)nc(N2CCN(C(=O)CCCCCCCCCCNC(=O)[C@H](CO)n3cc(CCCSC)nn3)CC2)n1`: the CC50 is 17.4 µM (inactive).

Regarding `C#CCOCCOCCOCCNc1nc(N2CCN(C(=O)CCCCCCCCCCNC(=O)Cn3cc(CCCCCN)nn3)CC2)nc(N2CCN(C(=O)CCCCCCCCCCNC(=O)[C@H]([C@@H](C)CC)n3cc(CCCCCN)nn3)CC2)n1`, the CC50 is 5.97 µM.

`C#CCOCCOCCOCCNc1nc(N2CCN(C(=O)CCCCCCCCCCNC(=O)Cn3cc(CCCCCN)nn3)CC2)nc(N2CCN(C(=O)CCCCCCCCCCNC(=O)Cn3cc(C[C@@H](C)O)nn3)CC2)n1`: the CC50 is 16.4 µM (inactive).

Consider `C#CCOCCOCCOCCNc1nc(N2CCN(C(=O)CCCCCCCCCCNC(=O)[C@H]([C@@H](C)CC)n3cc(CCCCN=C(N)N)nn3)CC2)nc(N2CCN(C(=O)CCCCCCCCCCNC(=O)[C@@H]([C@H](C)O)n3cc(C)nn3)CC2)n1`, for which the CC50 was 6.37 µM.

As for `C#CCOCCOCCOCCNc1nc(N2CCN(C(=O)CCCCCCCCCCNC(=O)[C@H]([C@@H](C)CC)n3cc(CCCCCN)nn3)CC2)nc(N2CCN(C(=O)CCCCCCCCCCNC(=O)[C@H]([C@@H](C)CC)n3cc(CCCCN=C(N)N)nn3)CC2)n1`, the CC50 is 2.07 µM.
